Values of other authors in patent US20060240493A1, “Cca1 as an antifungal target” (priority 2002, published 2006).

Details: mice, DOX 2 mg/ml in 5% sucrose drinking water, approximately 5 ml every day

For C[C@H]1c2cccc(O)c2C(=O)C2=C(O)[C@]3(O)C(=O)C(C(N)=O)=C(O)[C@@H](N(C)C)[C@@H]3[C@@H](O)[C@@H]21 [doxycycline], the “concentration of DOX in kidney” value is given as > 10 mg/g of kidney, the “concentration of DOX in liver” value is given as > 8 mg/g of liver and the “concentration of DOX in serum” value is given as “more than 2 mg/ml of serum”.
